The record followed here is patent US20070122830A1, “Prohibitin-directed diagnostics and therapeutics for cancer and chemotherapeutic drug resistance” (Aurelium BioPharma Inc., priority 2005, published 2007).

Series [1] concerns prohibitin. The series can be described thus: Prohibitin silencing by siRNA in MCF-7 cells, anti-prohibitin immunoblot. The format is cell-based, human. The note with it: MCF-7 cell line; FIG. 6. The source says: To establish the importance of prohibitin to the expression of the drug-resistant phenotype in MDA cell lines, prohibitin expression was silenced using RNAi. Briefly, the following siRNA duplexes targeting the human prohibitin mRNA were designed and purchased either from Ambion (Austin, Tex.) or Invitrogen (Carlsbad, Calif.). The siRNA duplex sequences corresponding to nucleotides 425 through 443 (GenBank SEQ ID NUMBER: U49725.1) targeting the start of the prohibitin mRNA transcript were:
For a typical siRNA transfection, 1 nmole of the annealed siRNA duplex was mixed with 1.4 ml of Opti-MEM reagent (Invitrogen). In another tube, […] of Oligofectamine reagent (Invitrogen, Carlsbad, Calif.) was mixed with […] of Opti-MEM. The two solutions were combined and mixed gently by inversion and incubated for 20 min. at RT. The resulting solution was added to the cultured cells drop by drop in a 10 cm dish (cells are approximately 40-50% confluent). The next day the transfected cells were trypsinized and seeded in 6 or 96-well plates and further incubated for the indicated amount of time (assay dependent) before further analysis.
Targeted silencing of prohibitin was performed as described in Example 2 above.
(In general: In western blotting, separated proteins are transferred to a membrane and probed.)

Series [2] concerns hematological tumor cells. Briefly: Hematological tumor model in MHC-matched mice, prohibitin siRNA plus chemotherapy. The format is in vivo. The following applies: Example 8. On the procedure: In order to determine whether targeting prohibitin is useful in treating a preexisting cancerous condition, MHC-matched mice, 5 to 7 weeks old, receive a subcutaneous (s.c.) injection of the cells 5×10^5 hematological tumor cells, and tumors are allowed to form. Tumor growth starting on the first day of treatment is measured by palpitation, and the volume of the xenograft is monitored every 4 days. Tumors are allowed to grow to a sufficient size (5.5 mm) for appropriate analysis of the effects of prohibitin treatment on tumor sensitivity to chemotherapeutic drugs. Mice are then treated with a prohibitin siRNA (3 μg daily for 16 days) designed to decrease the level of expression of prohibitin. […]
The animal's weight is measured every 4 days. Tumor growth starting on the first day of treatment is measured by palpitation and the volume of the xenograft is monitored every 4 days. […] Tumor tissue is excised from the mice and its weight is measured. […] Tumor cell count is determined by trypsinizing tumors in DMEM medium supplemented with 10% fetal bovine serum until cells are in free suspension. […]
Liposome formulations are produced as described previously (Shi et al. (2000) Proc. Natl. Acad. Sci. USA. 97(13): 7567-7572). […] The mean vesicle diameters are determined by quasielastic light scattering using a Microtrac Ultrafine Particle Analyzer (Leeds-Northrup, St. Petersburg, Fla.). […]

“prohibitin siRNA: siRNA duplex to human prohibitin mRNA nt 425-443; sense 5′-GGAAGUGGUCUGUCUGUUAtt-3′, antisense 5′-UAACAGACAGACCACUUCCtt-3′ (sense GGAAGUGGUCUGUCUGUUATT; antisense UAACAGACAGACCACUUCCTT; chemistry not given here)”: the “decrease in prohibitin expression as compared to mock siRNA” value in series [1] worked out at 37%. Besides, the “sensitivity of hematological tumors to chemotherapeutic drug treatment” value in series [2] (siRNA 3 μg daily for 16 days with taxol or doxorubicin) is “increases the sensitivity”. For the same substance, in series [2] (siRNA plus taxol or doxorubicin), the “prognosis (tumor size, tumor cells) vs targeting agent only or drug only” value is recorded as “better prognosis (i.e., smaller tumor or fewer tumor cells)”.
